# Experiments:
# [1] = target: T1, ATM kinase (Homo sapiens, UniProt Q13315); test: In vitro ATM kinase assay (Cisbio HTRF, p53 substrate); assay type: biochemical; settings: 30 μM ATP
# T1 construct: purchased Eurofins 14-933
# [2] = tested on: human colon cancer cell SW620; test: MTT proliferation assay in combination with CPT-11, SW620; assay type: cell-based; settings: Homo sapiens, SW-620, 120 h, medium containing 205 nM CPT-11, 5 days, read-out: IC50, inhibition of proliferation of SW620 combined with CPT-11
# How it was run: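 SW620 cells in RPMI 1640 + 10% FBS are seeded overnight, then given compound in fresh medium containing 205 nM CPT-11 (1% DMSO final) for 5 days at 37 °C, 5% CO2. Viability is read by MTT (0.5 mg/mL, 4 h) at 552/690 nm, normalised to background-corrected DMSO wells. IC50 is taken from viability versus log concentration.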
# [3] = tested on: human breast cancer cell MDA-MB-468; test: MTT proliferation assay, MDA-MB-468; assay type: cell-based; settings: Homo sapiens, MDA-MB-468, 168 h, 7 days, single agent, read-out: IC50, inhibition of proliferation of MDA-MB-468
# How it was run: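 Cells seeded overnight, then treated 7 days at 37 °C, 5% CO2 in RPMI 1640 + 5% FBS with 1% final DMSO, medium changed on day 4. MTT (0.5 mg/mL) for 4 h, DMSO-solubilised, absorbance at 552 and 693 nm; viability relative to DMSO after background subtraction, IC50 from log-concentration curves.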
# T1 sequence (Q13315 whole entry): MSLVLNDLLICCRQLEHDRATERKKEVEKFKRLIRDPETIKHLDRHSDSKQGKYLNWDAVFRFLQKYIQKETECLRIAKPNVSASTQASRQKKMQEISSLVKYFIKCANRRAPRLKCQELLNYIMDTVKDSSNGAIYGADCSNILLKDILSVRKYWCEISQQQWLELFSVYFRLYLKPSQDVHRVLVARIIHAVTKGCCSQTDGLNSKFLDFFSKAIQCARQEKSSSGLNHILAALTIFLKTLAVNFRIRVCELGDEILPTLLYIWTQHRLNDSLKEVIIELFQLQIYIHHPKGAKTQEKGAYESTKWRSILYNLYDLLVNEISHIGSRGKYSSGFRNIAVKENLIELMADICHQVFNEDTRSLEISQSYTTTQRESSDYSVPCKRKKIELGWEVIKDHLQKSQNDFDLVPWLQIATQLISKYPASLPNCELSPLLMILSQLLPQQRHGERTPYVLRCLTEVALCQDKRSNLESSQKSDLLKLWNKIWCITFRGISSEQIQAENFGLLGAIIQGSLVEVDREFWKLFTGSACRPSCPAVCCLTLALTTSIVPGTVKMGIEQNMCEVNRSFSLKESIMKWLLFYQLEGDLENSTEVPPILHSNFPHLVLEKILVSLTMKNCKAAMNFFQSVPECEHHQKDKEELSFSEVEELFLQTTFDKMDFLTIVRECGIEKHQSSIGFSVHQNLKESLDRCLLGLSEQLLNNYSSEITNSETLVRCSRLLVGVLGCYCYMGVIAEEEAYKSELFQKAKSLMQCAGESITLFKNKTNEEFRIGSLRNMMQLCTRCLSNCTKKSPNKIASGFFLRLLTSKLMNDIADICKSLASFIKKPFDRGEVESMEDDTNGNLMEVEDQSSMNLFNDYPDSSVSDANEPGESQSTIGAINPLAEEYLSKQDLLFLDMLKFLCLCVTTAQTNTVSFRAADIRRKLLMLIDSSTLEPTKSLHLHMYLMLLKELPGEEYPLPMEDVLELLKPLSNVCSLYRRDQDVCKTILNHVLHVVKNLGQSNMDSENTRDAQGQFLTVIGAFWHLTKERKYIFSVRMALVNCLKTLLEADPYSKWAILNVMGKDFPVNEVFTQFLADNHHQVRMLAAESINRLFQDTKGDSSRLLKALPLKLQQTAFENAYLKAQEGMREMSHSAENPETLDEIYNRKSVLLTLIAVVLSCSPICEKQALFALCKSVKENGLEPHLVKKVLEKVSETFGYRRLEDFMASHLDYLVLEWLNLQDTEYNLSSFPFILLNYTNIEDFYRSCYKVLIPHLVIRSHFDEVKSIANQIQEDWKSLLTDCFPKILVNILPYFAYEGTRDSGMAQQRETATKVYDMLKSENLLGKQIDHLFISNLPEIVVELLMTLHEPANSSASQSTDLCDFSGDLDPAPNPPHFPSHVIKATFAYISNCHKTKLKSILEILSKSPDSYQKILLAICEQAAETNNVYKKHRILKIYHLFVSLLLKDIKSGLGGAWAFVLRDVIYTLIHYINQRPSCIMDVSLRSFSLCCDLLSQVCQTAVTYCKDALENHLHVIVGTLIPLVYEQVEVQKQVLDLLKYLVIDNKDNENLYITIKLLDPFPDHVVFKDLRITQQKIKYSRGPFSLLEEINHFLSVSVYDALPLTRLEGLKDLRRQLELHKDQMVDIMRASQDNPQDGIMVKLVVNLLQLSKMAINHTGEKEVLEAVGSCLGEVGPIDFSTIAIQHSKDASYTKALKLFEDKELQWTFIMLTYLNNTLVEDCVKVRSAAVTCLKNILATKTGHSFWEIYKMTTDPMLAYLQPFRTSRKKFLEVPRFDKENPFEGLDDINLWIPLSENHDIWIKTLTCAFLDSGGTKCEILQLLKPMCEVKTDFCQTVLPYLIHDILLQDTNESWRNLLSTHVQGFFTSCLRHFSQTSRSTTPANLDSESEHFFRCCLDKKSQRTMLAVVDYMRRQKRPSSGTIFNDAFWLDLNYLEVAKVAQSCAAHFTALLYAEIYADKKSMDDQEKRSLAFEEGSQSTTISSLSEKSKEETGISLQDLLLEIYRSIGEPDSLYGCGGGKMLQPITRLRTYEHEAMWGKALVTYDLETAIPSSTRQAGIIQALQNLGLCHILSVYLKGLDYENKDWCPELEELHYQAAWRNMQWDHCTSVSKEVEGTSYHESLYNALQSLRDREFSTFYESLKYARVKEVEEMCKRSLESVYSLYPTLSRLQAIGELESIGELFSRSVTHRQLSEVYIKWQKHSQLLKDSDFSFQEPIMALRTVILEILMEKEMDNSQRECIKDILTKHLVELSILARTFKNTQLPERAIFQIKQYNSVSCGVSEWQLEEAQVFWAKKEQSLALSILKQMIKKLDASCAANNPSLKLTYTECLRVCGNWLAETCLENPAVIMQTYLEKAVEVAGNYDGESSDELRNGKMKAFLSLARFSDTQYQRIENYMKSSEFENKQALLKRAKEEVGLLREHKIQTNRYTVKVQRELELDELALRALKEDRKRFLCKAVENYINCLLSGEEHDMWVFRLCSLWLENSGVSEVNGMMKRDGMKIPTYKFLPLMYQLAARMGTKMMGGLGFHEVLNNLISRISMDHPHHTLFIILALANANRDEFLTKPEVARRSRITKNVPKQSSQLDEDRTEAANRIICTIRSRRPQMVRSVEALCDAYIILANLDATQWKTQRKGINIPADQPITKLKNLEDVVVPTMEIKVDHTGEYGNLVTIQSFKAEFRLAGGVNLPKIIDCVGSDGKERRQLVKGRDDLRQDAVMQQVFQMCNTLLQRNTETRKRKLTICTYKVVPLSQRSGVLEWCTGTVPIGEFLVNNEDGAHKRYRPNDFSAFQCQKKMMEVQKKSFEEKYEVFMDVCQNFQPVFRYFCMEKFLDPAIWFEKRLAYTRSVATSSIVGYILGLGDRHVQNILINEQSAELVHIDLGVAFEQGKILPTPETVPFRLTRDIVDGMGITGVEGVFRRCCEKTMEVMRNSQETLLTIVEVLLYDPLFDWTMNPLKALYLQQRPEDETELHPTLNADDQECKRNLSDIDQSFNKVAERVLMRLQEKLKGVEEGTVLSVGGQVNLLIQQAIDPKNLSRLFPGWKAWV
IC50 [1] [nM],IC50 [2] [nM],IC50 [3] [nM],Compound
0.46,12.1,7.6,"Cc1nc(N2C[C@@H](C)O[C@@H](C)C2)n2c1cnc1ccc(-c3ccc(N4CCC(N)CC4)nc3)cc12 [Example 48, 1-(5-(1-((2S,6R)-2,6-dimethylmorpholino)-3-methylimidazo[1,5-a]quinoxalin-8-yl)pyridin-2-yl)piperidin-4-amine]"
0.8,7.1,4.5,"CNC1CCN(c2ccc(-c3ccc4ncc5c(C)nc(N6C[C@@H](C)O[C@@H](C)C6)n5c4c3)cn2)CC1 [Example 49, 1-(5-(1-((2S,6R)-2,6-dimethylmorpholino)-3-methylimidazo[1,5-a]quinoxalin-8-yl)pyridin-2-yl)-N-methylpiperidin-4-amine]"
0.41,6.3,8.1,"CCNC1CCN(c2ccc(-c3ccc4ncc5c(C)nc(N6C[C@@H](C)O[C@@H](C)C6)n5c4c3)cn2)CC1 [Example 50, 1-(5-(1-((2S,6R)-2,6-dimethylmorpholino)-3-methylimidazo[1,5-a]quinoxalin-8-yl)pyridin-2-yl)-N-ethylpiperidin-4-amine]"
0.19,23.3,17.8,"Cc1nc(N2C[C@@H](C)O[C@@H](C)C2)n2c1cnc1ccc(-c3ccc(OCCCN4CCOCC4)nc3)cc12 [Example 58, (2S,6R)-2,6-dimethyl-4-(3-methyl-8-(6-(3-morpholinopropoxy)pyridin-3-yl)imidazo[1,5-a]quinoxalin-1-yl)morpholine]"
0.19,12,9.2,"Cc1nc(N2C[C@@H](C)O[C@@H](C)C2)n2c1cnc1ccc(-c3ccc(OCCCN4CCN(C)CC4)nc3)cc12 [Example 59, (2S,6R)-2,6-dimethyl-4-(3-methyl-8-(6-(3-(4-methylpiperazin-1-yl)propoxy)pyridin-3-yl)imidazo[1,5-a]quinoxalin-1-yl)morpholine]"
